Measurements reported in patent publication US11160806B2, “Salt of N-(2,6-diethylphenyl)-8-({4-[4-(dimethylamino) piperidin-1-yl]-2-methoxyphenyl}amino)-1-methyl-4,5-dihydro-1H-pyrazolo[4,3-h]quinazoline-3-carboxamide, its preparation, and formulations containing it” (LES LABORATOIRES SERVIER, priority 2017, dated 2021).
Blank lines part the entries; values can stand above or below the compound they belong to.

Legend:
[1] = Preliminary solubility test, in situ salt formation from the amorphous base in water at room temperature; type: physicochemical
[2] = Hygroscopicity by Dynamic Vapour Sorption; type: physicochemical
Protocol: The compound to be tested is submitted to hygroscopicity test by means of a Dynamic Vapour Sorption apparatus (DVS 1000—Surface Measurement Systems).
The apparatus is briefly defined as a “controlled atmosphere microbalance” where the weighed sample is exposed to variations of the relative humidity (RH) at a constant and controlled temperature. An exactly weighed amount of the product (generally 5-10 mg) was analysed.

[3] = target: T1, MPS1 (Monopolar Spindle 1) kinase, also known as TTK (Homo sapiens, UniProt P33981); conditions: cited from earlier work
T1 sequence (P33981 1-857): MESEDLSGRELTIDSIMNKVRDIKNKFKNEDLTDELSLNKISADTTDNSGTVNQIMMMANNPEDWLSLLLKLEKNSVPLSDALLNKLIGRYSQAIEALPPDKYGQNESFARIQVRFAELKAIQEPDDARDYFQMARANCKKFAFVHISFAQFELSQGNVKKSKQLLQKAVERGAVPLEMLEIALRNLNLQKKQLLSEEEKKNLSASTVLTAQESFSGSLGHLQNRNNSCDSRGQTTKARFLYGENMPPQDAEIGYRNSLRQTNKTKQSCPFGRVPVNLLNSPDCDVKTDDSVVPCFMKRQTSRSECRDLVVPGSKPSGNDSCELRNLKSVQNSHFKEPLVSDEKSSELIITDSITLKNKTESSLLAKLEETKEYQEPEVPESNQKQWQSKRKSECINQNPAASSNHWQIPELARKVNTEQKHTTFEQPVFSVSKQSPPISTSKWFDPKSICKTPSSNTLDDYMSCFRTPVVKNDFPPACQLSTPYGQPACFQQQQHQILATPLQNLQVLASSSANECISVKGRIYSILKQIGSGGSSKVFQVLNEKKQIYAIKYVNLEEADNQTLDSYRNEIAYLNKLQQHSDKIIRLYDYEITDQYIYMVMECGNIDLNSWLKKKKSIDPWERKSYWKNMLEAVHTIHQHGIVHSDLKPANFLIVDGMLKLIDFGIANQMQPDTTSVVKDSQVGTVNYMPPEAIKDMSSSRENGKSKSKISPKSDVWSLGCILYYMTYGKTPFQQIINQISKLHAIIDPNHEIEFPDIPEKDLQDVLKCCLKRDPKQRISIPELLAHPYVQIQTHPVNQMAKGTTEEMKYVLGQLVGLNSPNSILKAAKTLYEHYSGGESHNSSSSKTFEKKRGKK

[4] = Solubility of phosphate salt crystalline form I in water (WFI) or NaCl 0.9% at room temperature, HPLC; type: physicochemical; conditions: for Solubility 1 hour / Solubility 24 hours: room temperature
Protocol: Testing conditions: about 730 mg of testing compound were suspended in 4 ml of WFI (water for injection) or Saline (0.9% NaCl) to test a target solubility of 150 mg/ml as free base. The suspensions were magnetically stirred for 24 hours at room temperature and protected from light in amber glass vial. Testing compound concentrations were determined after 1 and 24 hours.

[5] = Stability over time under denaturing conditions (40° C./75% RH), chemical purity; type: physicochemical
Protocol: The compound of formula (II) according to the invention has a good stability over time under denaturing conditions (40° C./75% Relative Humidity (RH)): […]

[6] = Purity and stability under long term conditions; type: physicochemical
Source text: Purity and stability of N-(2,6-diethylphenyl)-8-({4-[4-(dimethylamino) piperidin-1-yl]-2-methoxy phenyl}amino)-1-methyl-4,5-dihydro-1H-pyrazolo[4,3-h]quinazoline-3-carboxamide phosphate Form I have been tested under long term conditions as follows: […]

Solubility 1 hour ([1]; water, 1 hour): <0.001 mg/ml as free base
Solubility 24 hours ([1]; water, 24 hours): <0.001 mg/ml as free base
Water uptake at 30% RH [2]: 0.4%
Water uptake at 60% RH [2]: 1%
Water uptake at 90% RH [2]: 2.8%
Solubility 1 hour ([4]; water): <0.001 mg/ml as free base
Solubility 24 hours ([4]; water): <0.001 mg/ml as free base
Compound: CCc1cccc(CC)c1NC(=O)c1nn(C)c2c1CCc1cnc(Nc3ccc(N4CCC(N(C)C)CC4)cc3OC)nc1-2 [Free Base, N-(2,6-diethylphenyl)-8-({4-[4-(dimethylamino)piperidin-1-yl]-2-methoxyphenyl}amino)-1-methyl-4,5-dihydro-1H-pyrazolo[4,3-h]quinazoline-3-carboxamide]
Ability to inhibit MPS1 kinase [3]: has the ability to inhibit MPS1

Chemical purity ([5]; 1 month 40° C./75% RH Open bottle): 99.4%
Chemical purity ([5]; t0): 99.5%
Improvement of solubility versus the free base [1]: at least 24 000 times
Improvement of solubility versus the hydrochloride salt [1]: at least 25 times
Water uptake at 30% RH [2]: 0.4%
Water uptake at 60% RH [2]: 1%
Water uptake at 90% RH [2]: 2.5%
Solubility 1 hour ([4]; NaCl 0.9%): 81.0 mg/ml as free base
Solubility 24 hours ([4]; NaCl 0.9%): 133.6 mg/ml as free base
Solubility 1 hour ([4]; water): 87.5 mg/ml as free base
Solubility 24 hours ([4]; water): 130.2 mg/ml as free base
Appearance ([6]; 1 month 5° C.): Yellow
Drug substance ([6]; 1 month 5° C.): 99.94%
Total amount of impurities ([6]; 1 month 5° C.): 0.06%
Appearance ([6]; 1 month 25° C./60% RH): Yellow
Drug substance ([6]; 1 month 25° C./60% RH): 99.93%
Total amount of impurities ([6]; 1 month 25° C./60% RH): 0.07%
Appearance ([6]; 3 months 5° C.): Yellow
Drug substance ([6]; 3 months 5° C.): 99.93%
Total amount of impurities ([6]; 3 months 5° C.): 0.07%
Appearance ([6]; 3 months 25° C./60% RH): Yellow
Drug substance ([6]; 3 months 25° C./60% RH): 99.93%
Total amount of impurities ([6]; 3 months 25° C./60% RH): 0.07%
Appearance ([6]; 9 months 5° C.): Yellow
Drug substance ([6]; 9 months 5° C.): 99.93%
Total amount of impurities ([6]; 9 months 5° C.): 0.07%
Appearance ([6]; 12 months 5° C.): Yellow
Crystalline Form (XRD assessment) ([6]; 12 months 5° C.): Form I
Drug substance ([6]; 12 months 5° C.): 99.94%
Total amount of impurities ([6]; 12 months 5° C.): 0.06%
Appearance ([6]; 24 months 5° C.): Yellow
Crystalline Form (XRD assessment) ([6]; 24 months 5° C.): Form I
Drug substance ([6]; 24 months 5° C.): 99.91%
Total amount of impurities ([6]; 24 months 5° C.): 0.09%
Time over which the substance is stable ([6]; long term conditions): ≥ 24 months
Appearance ([6]; t0): Yellow
Crystalline Form (XRD assessment) ([6]; t0): Form I
Drug substance ([6]; t0): 99.94%
Total amount of impurities ([6]; t0): 0.06%
Compound: CCc1cccc(CC)c1NC(=O)c1nn(C)c2c1CCc1cnc(Nc3ccc(N4CCC(N(C)C)CC4)cc3OC)nc1-2.O=P(O)(O)O [Phosphate salt, N-(2,6-diethylphenyl)-8-({4-[4-(dimethylamino)piperidin-1-yl]-2-methoxyphenyl}amino)-1-methyl-4,5-dihydro-1H-pyrazolo[4,3-h]quinazoline-3-carboxamide phosphate]
Solubility at room temperature ([4]; both in water and in NaCl 0.9%): at least 130 mg/ml expressed as free base
